Assays:
U2932 cells = test: Viability of U2932 cells, combination of PNAs with HDAC inhibitors and other drugs
Method: FIGS. 9A-D show cell viability after treatment with indicated PNAs. (9A) The viability of U2932 cells after treatment with γPNA1-NLS (8 μM), romidepsin (10 nM) and combination of γPNA1-NLS with romidepsin over 96 hours. (9B) The viability of U2932 cells after treatment with γPNA2-NLS (8 μM), romidepsin (10 nM) and combination of γPNA2-NLS with romidepsin over 96 hours. (9C) Fold change in C-Myc levels after combination of γPNA1-NLS and γPNA2-NLS with romidepsin in comparison to only romidepsin treatment. (9D) Fold change in BCL2 levels after combination of γPNA1-NLS and γPNA2-NLS with romidepsin in comparison to only romidepsin treatment.
FIGS. 10A-F show the viability of U2932 cells after indicated treatment. (10A) Viability of U2932 cells after treatment with γPNA2-NLS […], vorinostat (2.5 μM) and combination of γPNA2-NLS with vorinostat over 96 hours. (10B) The viability of U2932 cells after treatment with γPNA2-NLS (8 μM), valproic acid (2 mM) and combination of γPNA2-NLS with valproic acid over 96 hours. […] (10E) The viability of U2932 cells after treatment with CHOP (cyclophosphamide, vincristine, doxorubicin, prednisone) and combination of γPNA2-NLS with CHOP at different doses.
Cell viability: U2932 and Raji cells were seeded in 96 well plates at 20,000 cells/well. PNAs were added to the media at different concentrations (1, 2, 4, and 8 μM). […] The cell viability was then measured via trypan blue staining on day 1, 2, and 4.

C-Myc oncogene [1] = test: Gene expression (RT-PCR) of C-Myc and downstream targets in U2932 cells; assay type: cell-based, human; details: RT-PCR, 24 h, 8 μM
Method: (§1) FIGS. 4A-F show effect of cellular uptake of indicated PNAs. (4A) Expression levels of C-Myc oncogene in U2932 (DLBCL), Raji and Daudi cells (Burkitt's lymphoma) in comparison to the peripheral blood mononuclear cells (PBMC). (4B) Cell viability of U2932 cells after 24 h treatment with indicated PNAs at different doses. (4C) Cell viability of Raji cells after 24 h treatment with indicated PNAs at different doses. (4D) Gene expression levels of C-Myc oncogene and its downstream targets including MCL1 and EZH2 in U2932 cells after 24 h of treatment with γPNA1-NLS, γPNA2-NLS, and ScrγPNA4-NLS at 8 μM. (4E) Gene expression levels of C-Myc oncogene and its downstream targets including BCL2 and EZH2 in Raji cells after 24 h of treatment with γPNA1-NLS, γPNA2-NLS, and ScrγPNA4-NLS at 8 μM. (4F) Gene expression levels of C-Myc in U2932 cells after 24 h treatment with γPNA2-NLS and ScrγPNA4-NLS at indicated doses.
(§2) Gene expression: The levels of mRNA were measured in different cell lines using real time-polymerase chain reaction (RT-PCR). Both untreated (PBMC, U2932, Raji, Daudi) and PNA treated lymphoma cells were collected at the end of treatment. Total RNA was extracted using Qiagen RNeasy® kit (USA) and concentration was measured by Nanodrop™. cDNA was synthesized using high capacity cDNA reverse transcription kit (Applied Biosystem, USA) following the recommended cycling conditions. Taqman® gene expression assay for C-Myc, EZH2, BCL2, MCL1 and GAPDH were used to amplify the respective mRNAs using the specified cycling conditions in the CFX Real-Time PCR detection system. GAPDH was used as the reference gene and fold change in mRNA expression was obtained by normalizing against the untreated cells or cells treated with HDAC inhibitors.

C-Myc oncogene [2] = test: Gene expression (RT-PCR) in U2932 cells after combination treatment; assay type: cell-based, human
Method: as §2

C-Myc oncogene [3] = test: Gene expression (RT-PCR) of C-Myc and downstream targets in Raji cells; assay type: cell-based, human; details: 24 h, 8 μM
Method: as §1, §2

U2932 derived xenografts = test: Tumor growth and survival study in U2932 derived xenograft mice; assay type: in vivo; details: 5 mg/kg systemic on day 1, 4, 7, and 10
Method: FIGS. 7A-C show survival data of mice after systemic administration of indicated PNAs. (7A) Graph representing the tumor volume of U2932 xenografts after systemic treatment with indicated PNAs (n≥4 mice per group). PNAs were administered systemically on day 1, 4, 7, and 10 (n≥4 mice per group). (7B) The survival of U2932 derived xenograft mice after treatment with γPNA2-NLS, γPNA3, and ScrγPNA4-NLS at 5 mg/kg dose in comparison to the control (saline) mice. (7C) Complete blood count analysis of mice from different groups at the end of the study. RBC: red blood cells; WBC: white blood cells; HGB: hemoglobin; PLT: platelets; HCT: hematocrit; MCH: […]. (D) Blood chemistry analysis of mice from different groups at the end of the study. ALT: alanine transaminase; AST: aspartate transaminase; BUN: blood urea nitrogen; LDH: Lactate dehydrogenase. Results are presented as mean±SEM (n≥4).
In vivo studies in xenograft mice model: U2932 derived xenografts were generated by implanting 10 million cells subcutaneously on the lower right flank of the female NSG mice (NOD.Cg-Prkdc^scidIl2rg^tm1Wj1/SzJ, #005557, Jackson Laboratories, USA) of 5-6 weeks. The mice were maintained in the animal care facility at the University of Connecticut following the required Institutional Animal Care and Use Committee guidelines (IACUC). Mice developed palpable tumors after 3-4 weeks of implantation. Tumor dimensions including length (l), breadth (b), and height (h) were measured using a caliper and volume was calculated using the formula for ellipsoid (0.5236×lbh).
Survival study: Mice bearing tumors about 100-150 mm^3 were divided into 4 groups. Mice were treated with either γPNA2-NLS, γPNA3, Scr-γPNA4-NLS, or saline. PNAs were administered at 5 mg/kg dose on day 1, 4, 7, and 10. The change in tumor volume was measured every day. Mice were euthanized when the tumor volume reached 2000 mm^3. Blood was collected via cardiac punter in 1.5 ml tubes containing 0.5 M EDTA. Organs including tumor, liver, kidney, spleen, heart and lung were collected. Tumor fraction and all organs were kept in 10% formalin and submitted for histology. The complete blood count analysis was performed on the collected blood samples using Sysmex CBC analyzer. Plasma was separated from the blood samples and submitted to Antech diagnostic for blood chemistry analysis to quantify the levels of alanine transaminase, lactate dehydrogenase, aspartate transaminase and blood urea nitrogen.

“JJJJTTJJ-OOO-CCTTCCCCACCCTCCCCACCCTC-K-OOO-VKRKKKP (gamma PNA tail clamp; linkers; NLS peptide; misc_feature 1 JJJJTTJJ-linker- is covalently linked to the backbone, wherein J is pseudoisocytosine and the linker is 11-Amino-3,6,9-Trioxaundecanoic Acid (DCHA), represented as -OOO-; misc_feature 23 -K-linker-SEQ ID NO: 5 is covalently linked to the backbone, wherein the linker is 11-Amino-3,6,9-Trioxaundecanoic Acid (DCHA), represented as -OOO-; modified_base 1..23 OTHER; peptide nucleic acid) [γPNA1-NLS]” was tested, and the “combination effect with romidepsin on viability (in words)” value (U2932 cells; U2932 cells, romidepsin 10 nM, PNA 8 uM) was “synergistic activity”, the “decrease in U2932 cell viability, combination with romidepsin” value (U2932 cells; romidepsin 10 nM pretreatment 24 h, PNA 8 uM, day 4) was “approximately 80%” and the “change in levels of C-Myc (in words)” value (C-Myc oncogene [1]) was “did not observe any change in levels of C-Myc”. For the same molecule, the “levels of downstream targets MCL1 and EZH2” value (C-Myc oncogene [1]) was “no change in their levels”, the “BCL-2 levels, combination with romidepsin in comparison to only romidepsin” value (C-Myc oncogene [2]; day 4) was “reduced levels” and the “decrease in C-Myc levels, combination with romidepsin compared with only romidepsin” value (C-Myc oncogene [2]; day 4, PNA 8 uM, romidepsin 10 nM) was “approximately 50%”. For the same molecule, the “change in levels of C-Myc (in words)” value (C-Myc oncogene [3]) was “did not observe any change in levels of C-Myc” and the “levels of downstream targets BCL2 and EZH2” value (C-Myc oncogene [3]) was “no change in their levels”.
`C/C=C1\NC(=O)[C@H]2CSSCC/C=C/[C@H](CC(=O)N[C@H](C(C)C)C(=O)N2)OC(=O)[C@H](C(C)C)NC1=O` [Romidepsin, reference compound] was tested, and the cytotoxicity at 0.01 µM (U2932 cells; Homo sapiens, U2932, 96 h, read-out: decrease in viability, alone) was 60%.
“X3TCCCTCCCTCCGTTCTTTTTCCCX4 (JJJTJJJT linker N-term; C-terminal lysine; gammaPNA; misc_feature 1 JJJTJJJT-linker- is covalently linked to the backbone, wherein J is pseudoisocytosine and the linker is 11-Amino-3,6,9-Trioxaundecanoic Acid (DCHA), represented as -OOO-; misc_feature 23 K is covalently linked to the backbone; modified_base 1..23 OTHER; peptide nucleic acid) [γPNA3, site 2 gamma tail clamp PNA without NLS]” was tested, and the “tumor growth in comparison to the control groups” value (U2932 derived xenografts) was “significantly reduced tumor growth” and the “survival of the mice” value (U2932 derived xenografts; saline 21 days) was 23 days.
